What follows are compounds tested against T1, NK1 receptor (Homo sapiens, UniProt P25103) (assay: NK1 receptor mediated intracellular [Ca2+] mobilization in U251 MG cells using FLIPR). Conditions: antagonist potency against Substance P (EC80), normalized to 100 nM Aprepitant, read-out: U251MG (FLIPR pIC50) (converted).
T1 construct: Measurement of NK1 Receptor Mediated Intracellular [Ca^2+]; Mobilization in U251 MG Cells Using FLIPR; endogenous in cells; host or cells: U251 MG cells
Type: cell-based
Procedure: Measurement of NK1 Receptor Mediated Intracellular [Ca^2+] Mobilization in U251 MG Cells Using FLIPR
U251 MG cells were seeded into black walled clear-bottom 384-well plates (Greiner Bio-One GmbH, Frickenhausen, Germany) at a density of 15,000 cells/well in 50 μl culture medium and cultured overnight in a 37° C. 5% CO2 incubator. The cells were then loaded with the calcium sensitive dye Fluo-4 (Invitrogen) at 1 μM in buffer, containing 0.04%
Pluronic F-127 (Sigma-Aldrich), and 2.5 mM probenecid (Sigma-Aldrich) for 60 min in a humidified atmosphere of 5% CO2. Thereafter, cells were washed three times in washing buffer containing 20 mM HEPES and 2.5 mM probenecid pH 7.3. Serial dilutions of test compounds in assay buffer containing 2% dimethyl sulfoxide (final concentration in the cell plate is 0.5% DMSO) and/or agonist were then automatically pipetted into each test well, and the peak fluorescence intensity was recorded (lex, 488 nm; lem, 540 nm) by the FLIPR instrument (Molecular Devices) for approximately 5 min. To measure antagonist potency, cell plates were first incubated with the test compound and intracellular fluorescence recorded for 5 minutes to check a potential agonist effect of the test compound. Cell plates were quickly removed from the FLIPR instrument and incubated for additional 10 minutes at 37° C. before being moved back to the FLIPR instrument for Substance P (EC80) addition. The response was measured as the peak relative fluorescence change after agonist addition.
The IC50 value is defined as the molar concentration of a test compound that produces a response midway between the fitted top and the fitted bottom. pIC50=−log IC50
Formula is listed as follows: Fit(% Effect calculated)=(A+((B−A)/(1+((C/X)^D)))) • A: bottom value • B: top value • C: […] • D: Hill slope coefficient
Ref: Sullivan E, Tucker E M, and Dale I L. Measurement of [Ca^2+] using the Fluorometric Imaging Plate Reader (FLIPR). Methods Mol Biol 114:125-133, 1999.
Compounds of the present invention were tested according to example 120.

T1 sequence (P25103 whole entry): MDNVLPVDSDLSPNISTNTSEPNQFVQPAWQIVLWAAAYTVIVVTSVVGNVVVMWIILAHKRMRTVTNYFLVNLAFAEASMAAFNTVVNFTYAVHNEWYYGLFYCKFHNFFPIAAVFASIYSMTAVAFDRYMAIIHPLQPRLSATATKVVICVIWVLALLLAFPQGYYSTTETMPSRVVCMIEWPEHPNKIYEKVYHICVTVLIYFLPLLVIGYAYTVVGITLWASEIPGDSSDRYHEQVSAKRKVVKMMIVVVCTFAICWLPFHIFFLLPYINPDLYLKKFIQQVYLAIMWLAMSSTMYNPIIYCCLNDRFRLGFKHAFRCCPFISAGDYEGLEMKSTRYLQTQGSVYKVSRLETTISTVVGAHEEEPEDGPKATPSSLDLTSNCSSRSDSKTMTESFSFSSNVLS

Row | SMILES | IC50 [nM]
1 | Cc1ccccc1C1C2CC3(CCN(C)CC3)C(=O)N2CCN1C(=O)N(C)Cc1cc(C(F)(F)F)cc(C(F)(F)F)c1 (single isomer, unassigned) [Compound 46, N-{[3,5-bis(trifluoromethyl)phenyl]methyl}-N,1-dimethyl-4′-(2-methylphenyl)-1′-oxo-hexahydro-1′H-spiro[piperidine-4,2′-pyrrolo[1,2-a]piperazine]-5′-carboxamide] | 4.57
2 | Cc1ccccc1C1C2CC(CO)CN2CCN1C(=O)N(C)Cc1cc(C(F)(F)F)cc(C(F)(F)F)c1 (single isomer, unassigned) [Compound 48, N-{[3,5-bis(trifluoromethyl)phenyl]methyl}-7-(hydroxymethyl)-N-methyl-1-(2-methylphenyl)-octahydropyrrolo[1,2-a]piperazine-2-carboxamide] | 0.224
3 | Cc1ccccc1C1C2CC(CN3CCOCC3)C(=O)N2CCN1C(=O)N(C)Cc1cc(C(F)(F)F)cc(C(F)(F)F)c1 (single isomer, unassigned) [Compound 51] | 0.12
4 | Cc1ccccc1C1C2CC(CCO)(CCO)C(=O)N2CCN1C(=O)N(C)[C@H](C)c1cc(C(F)(F)F)cc(C(F)(F)F)c1 (single isomer, unassigned) [Compound 53] | 2.45
5 | Cc1ccccc1C1C2CC(CO)C(=O)N2CCN1C(=O)N(C)[C@H](C)c1cc(C(F)(F)F)cc(C(F)(F)F)c1 (single isomer, unassigned) [Compound 57] | 1.51
6 | Cc1ccccc1C1C2CC(CO)C(=O)N2CCN1C(=O)N(C)[C@H](C)c1cc(C(F)(F)F)cc(C(F)(F)F)c1 (single isomer, unassigned) [Compound 58] | 11.5
7 | Cc1ccccc1C1C2CC(CCO)(CCO)CN2CCN1C(=O)N(C)[C@H](C)c1cc(C(F)(F)F)cc(C(F)(F)F)c1 (single isomer, unassigned) [Compound 59] | 60.3
8 | Cc1ccccc1C1C2CCCN2CCN1C(=O)N(C)Cc1cc(C(F)(F)F)cc(C(F)(F)F)c1 (single isomer, unassigned) [Compound 61, N-{[3,5-bis(trifluoromethyl)phenyl]methyl}-N-methyl-1-(2-methylphenyl)-octahydropyrrolo[1,2-a]piperazine-2-carboxamide] | > 100
9 | Cc1ccccc1C1C2CCCN2CCN1C(=O)N(C)Cc1cc(C(F)(F)F)cc(C(F)(F)F)c1 (single isomer, unassigned) [Compound 62, N-{[3,5-bis(trifluoromethyl)phenyl]methyl}-N-methyl-1-(2-methylphenyl)-octahydropyrrolo[1,2-a]piperazine-2-carboxamide] | 0.955
10 | Cc1ccccc1C1C2CCCN2CCN1C(=O)N(C)[C@H](C)c1cc(C(F)(F)F)cc(C(F)(F)F)c1 (single isomer, unassigned) [Compound 64] | 42.7
11 | Cc1ccccc1C1C2CC(CCO)(CCO)CN2CCN1C(=O)N(C)Cc1cc(C(F)(F)F)cc(C(F)(F)F)c1 (single isomer, unassigned) [Compound 65, N-{[3,5-bis(trifluoromethyl)phenyl]methyl}-7,7-bis(2-hydroxyethyl)-N-methyl-1-(2-methylphenyl)-octahydropyrrolo[1,2-a]piperazine-2-carboxamide] | 30.2
12 | Cc1ccccc1C1C2CC(CO)CN2CCN1C(=O)N(C)[C@H](C)c1cc(C(F)(F)F)cc(C(F)(F)F)c1 (single isomer, unassigned) [Compound 67] | 0.204
13 | Cc1ccccc1C1C2CC(CO)CN2CCN1C(=O)N(C)[C@H](C)c1cc(C(F)(F)F)cc(C(F)(F)F)c1 (single isomer, unassigned) [Compound 68] | 4.47
14 | Cc1ccccc1C1C2CC(CO)CN2CCN1C(=O)N(C)[C@H](C)c1cc(C(F)(F)F)cc(C(F)(F)F)c1 (single isomer, unassigned) [Compound 69] | 0.214
15 | Cc1ccccc1C1C2CC(CO)CN2CCN1C(=O)N(C)[C@H](C)c1cc(C(F)(F)F)cc(C(F)(F)F)c1 (single isomer, unassigned) [Compound 70] | 66.1
16 | Cc1ccccc1C1C2CC(CN3CCOCC3)C(=O)N2CCN1C(=O)N(C)[C@H](C)c1cc(C(F)(F)F)cc(C(F)(F)F)c1 (single isomer, unassigned) [Compound 71] | 28.2
17 | Cc1ccccc1C1C2CC(CN3CCOCC3)C(=O)N2CCN1C(=O)N(C)[C@H](C)c1cc(C(F)(F)F)cc(C(F)(F)F)c1 (single isomer, unassigned) [Compound 72] | 8.13
18 | Cc1ccccc1C1C2CC(CN3CCOCC3)C(=O)N2CCN1C(=O)N(C)[C@H](C)c1cc(C(F)(F)F)cc(C(F)(F)F)c1 (single isomer, unassigned) [Compound 73] | 0.107
19 | Cc1ccccc1C1C2CC(CN3CCOCC3)C(=O)N2CCN1C(=O)N(C)[C@H](C)c1cc(C(F)(F)F)cc(C(F)(F)F)c1 (single isomer, unassigned) [Compound 74] | 0.0891
20 | Cc1ccccc1[C@H]1[C@@H]2CC(CCO)(CCO)C(=O)N2CCN1C(=O)N(C)C(CCO)c1cc(C(F)(F)F)cc(C(F)(F)F)c1 (single isomer, unassigned) [Compound 81] | 0.12
21 | Cc1ccccc1[C@H]1[C@@H]2CC(CCO)(CCO)C(=O)N2CCN1C(=O)N(C)C(CCO)c1cc(C(F)(F)F)cc(C(F)(F)F)c1 (single isomer, unassigned) [Compound 82] | 0.112
22 | Cc1ccccc1C1C2CC(C)(C(=O)O)C(=O)N2CCN1C(=O)N(C)Cc1cc(C(F)(F)F)cc(C(F)(F)F)c1 (stereo not drawn) [Compound 8, 2-({[3,5-bis(trifluoromethyl)phenyl]methyl}(methyl)carbamoyl)-7-methyl-1-(2-methylphenyl)-6-oxo-octahydropyrrolo[1,2-a]piperazine-7-carboxylic acid] | 61.7
23 | COC(=O)C1(C)CC2C(c3ccccc3C)N(C(=O)N(C)Cc3cc(C(F)(F)F)cc(C(F)(F)F)c3)CCN2C1=O (stereo not drawn) [Compound 11, Methyl 2-({[3,5-bis(trifluoromethyl)phenyl]methyl}(methyl)carbamoyl)-7-methyl-1-(2-methylphenyl)-6-oxo-octahydropyrrolo{1,2-a}piperazine-7-carboxylate] | 0.813
24 | Cc1ccccc1C1C2CC(CCO)CN2CCN1C(=O)N(C)C(CCO)c1cc(C(F)(F)F)cc(C(F)(F)F)c1 (stereo not drawn) [Compound 36, N-{1-[3,5-bis(trifluoromethyl)phenyl]-3-hydroxypropyl}-7-(2-hydroxyethyl)-N-methyl-1-(2-methylphenyl)-octahydropyrrolo[1,2-a]piperazine-2-carboxamide] | 0.724
25 | CC(=O)N1CCN(CC2CC3C(c4ccccc4C)N(C(=O)N(C)Cc4cc(C(F)(F)F)cc(C(F)(F)F)c4)CCN3C2=O)CC1 (stereo not drawn) [Compound 37, 7-[(4-acetylpiperazin-1-yl)methyl]-N-{[3,5-bis(trifluoromethyl)phenyl]methyl}-N-methyl-1-(2-methylphenyl)-6-oxo-octahydropyrrolo[1,2-a]piperazine-2-carboxamide] | 0.309
26 | Cc1ccccc1[C@H]1[C@@H]2CC(CCO)(CCO)C(=O)N2CCN1C(=O)N(C)Cc1cccc(C(F)(F)F)c1 [Compound 80, (1S,8aS)-7,7-bis(2-hydroxyethyl)-N-methyl-6-oxo-1-o-tolyl-N-(3-(trifluoromethyl)benzyl)hexahydropyrrolo[1,2-a]pyrazine-2(1H)-carboxamide] | 0.468
27 | Cc1ccccc1[C@H]1[C@@H]2CC(CCO)(CCO)C(=O)N2CCN1C(=O)N(C)[C@@H](CO)c1cc(C(F)(F)F)cc(C(F)(F)F)c1 [Compound 87, (1S,8aS)-N-((R)-1-(3,5-bis(trifluoromethyl)phenyl)-2-hydroxyethyl)-7,7-bis(2-hydroxyethyl)-N-methyl-6-oxo-1-o-tolylhexahydropyrrolo[1,2-a]pyrazine-2(1H)-carboxamide] | 0.204

— patent publication US9181259B2 (LEO PHARMA A/S, priority 2012, dated 2015)
